# In article PMC12102759 (Protein Science : A Publication of the Protein Society, 2025):
# Tested on: G3BP1 NFT2
# Type: binding, human
# Conditions: library DMS-CoV; bait G3BP1 NFT2; prey N; peptide APRITFGGPSDSTGSN; listed as aa = residue placed at this position; column sums to 1
Sequence,"DMS PSSM value, D (position 11)","DMS PSSM value, F (position 6)","DMS PSSM value, G (position 7)","DMS PSSM value, G (position 8)","DMS PSSM value, G (position 14)","DMS PSSM value, I (position 4)","DMS PSSM value, P (position 2)"
APRITFGGPSDSTGSN D11V (APRITFGGPSVSTGSN),0.02861,,,,,,
APRITFGGPSDSTGSN D11W (APRITFGGPSWSTGSN),0.001161,,,,,,
APRITFGGPSDSTGSN D11Y (APRITFGGPSYSTGSN),0.02603,,,,,,
APRITFGGPSDSTGSN F6A (APRITAGGPSDSTGSN),,0,,,,,
APRITFGGPSDSTGSN F6D (APRITDGGPSDSTGSN),,0,,,,,
APRITFGGPSDSTGSN F6E (APRITEGGPSDSTGSN),,0,,,,,
APRITFGGPSDSTGSN F6G (APRITGGGPSDSTGSN),,0,,,,,
APRITFGGPSDSTGSN F6H (APRITHGGPSDSTGSN),,0,,,,,
APRITFGGPSDSTGSN F6I (APRITIGGPSDSTGSN),,0,,,,,
APRITFGGPSDSTGSN F6K (APRITKGGPSDSTGSN),,0,,,,,
APRITFGGPSDSTGSN F6L (APRITLGGPSDSTGSN),,0.004454,,,,,
APRITFGGPSDSTGSN F6M (APRITMGGPSDSTGSN),,0,,,,,
APRITFGGPSDSTGSN F6N (APRITNGGPSDSTGSN),,0,,,,,
APRITFGGPSDSTGSN F6P (APRITPGGPSDSTGSN),,0,,,,,
APRITFGGPSDSTGSN F6Q (APRITQGGPSDSTGSN),,0,,,,,
APRITFGGPSDSTGSN F6R (APRITRGGPSDSTGSN),,0,,,,,
APRITFGGPSDSTGSN F6S (APRITSGGPSDSTGSN),,0,,,,,
APRITFGGPSDSTGSN F6T (APRITTGGPSDSTGSN),,0,,,,,
APRITFGGPSDSTGSN F6V (APRITVGGPSDSTGSN),,0,,,,,
APRITFGGPSDSTGSN F6W (APRITWGGPSDSTGSN),,0,,,,,
APRITFGGPSDSTGSN F6Y (APRITYGGPSDSTGSN),,0.004533,,,,,
APRITFGGPSDSTGSN G7A (APRITFAGPSDSTGSN),,,0,,,,
APRITFGGPSDSTGSN G7D (APRITFDGPSDSTGSN),,,0,,,,
APRITFGGPSDSTGSN G7E (APRITFEGPSDSTGSN),,,0.08457,,,,
APRITFGGPSDSTGSN G7F (APRITFFGPSDSTGSN),,,0,,,,
APRITFGGPSDSTGSN G7H (APRITFHGPSDSTGSN),,,0,,,,
APRITFGGPSDSTGSN G7I (APRITFIGPSDSTGSN),,,0,,,,

Sequence,"DMS PSSM value, D (position 11)","DMS PSSM value, F (position 6)","DMS PSSM value, G (position 7)","DMS PSSM value, G (position 8)","DMS PSSM value, G (position 14)","DMS PSSM value, I (position 4)","DMS PSSM value, P (position 2)"
APRITFGGPSDSTGSN G7K (APRITFKGPSDSTGSN),,,0,,,,
APRITFGGPSDSTGSN G7L (APRITFLGPSDSTGSN),,,0,,,,
APRITFGGPSDSTGSN G7M (APRITFMGPSDSTGSN),,,0,,,,
APRITFGGPSDSTGSN G7N (APRITFNGPSDSTGSN),,,0,,,,
APRITFGGPSDSTGSN G7P (APRITFPGPSDSTGSN),,,0,,,,
APRITFGGPSDSTGSN G7Q (APRITFQGPSDSTGSN),,,0.005359,,,,
APRITFGGPSDSTGSN G7R (APRITFRGPSDSTGSN),,,0,,,,
APRITFGGPSDSTGSN G7S (APRITFSGPSDSTGSN),,,0,,,,
APRITFGGPSDSTGSN G7T (APRITFTGPSDSTGSN),,,0,,,,
APRITFGGPSDSTGSN G7V (APRITFVGPSDSTGSN),,,0,,,,
APRITFGGPSDSTGSN G7W (APRITFWGPSDSTGSN),,,0,,,,
APRITFGGPSDSTGSN G7Y (APRITFYGPSDSTGSN),,,0,,,,
APRITFGGPSDSTGSN G8A (APRITFGAPSDSTGSN),,,,0.9067,,,
APRITFGGPSDSTGSN G8D (APRITFGDPSDSTGSN),,,,0,,,
APRITFGGPSDSTGSN G8E (APRITFGEPSDSTGSN),,,,0.0007374,,,
APRITFGGPSDSTGSN G8F (APRITFGFPSDSTGSN),,,,0,,,
APRITFGGPSDSTGSN G8H (APRITFGHPSDSTGSN),,,,0,,,
APRITFGGPSDSTGSN G8I (APRITFGIPSDSTGSN),,,,0,,,
APRITFGGPSDSTGSN G8K (APRITFGKPSDSTGSN),,,,0,,,
APRITFGGPSDSTGSN G8L (APRITFGLPSDSTGSN),,,,0.0001736,,,
APRITFGGPSDSTGSN G8M (APRITFGMPSDSTGSN),,,,0,,,
APRITFGGPSDSTGSN G8N (APRITFGNPSDSTGSN),,,,0,,,
APRITFGGPSDSTGSN G8P (APRITFGPPSDSTGSN),,,,0.001619,,,
APRITFGGPSDSTGSN G8Q (APRITFGQPSDSTGSN),,,,0,,,
APRITFGGPSDSTGSN G8R (APRITFGRPSDSTGSN),,,,0,,,
APRITFGGPSDSTGSN G8S (APRITFGSPSDSTGSN),,,,0.005734,,,
APRITFGGPSDSTGSN G8T (APRITFGTPSDSTGSN),,,,0.001267,,,

Sequence,"DMS PSSM value, D (position 11)","DMS PSSM value, F (position 6)","DMS PSSM value, G (position 7)","DMS PSSM value, G (position 8)","DMS PSSM value, G (position 14)","DMS PSSM value, I (position 4)","DMS PSSM value, P (position 2)"
APRITFGGPSDSTGSN G8V (APRITFGVPSDSTGSN),,,,0.0004532,,,
APRITFGGPSDSTGSN G8W (APRITFGWPSDSTGSN),,,,0,,,
APRITFGGPSDSTGSN G8Y (APRITFGYPSDSTGSN),,,,0.02437,,,
APRITFGGPSDSTGSN G14A (APRITFGGPSDSTASN),,,,,0.007074,,
APRITFGGPSDSTGSN G14D (APRITFGGPSDSTDSN),,,,,0.0004838,,
APRITFGGPSDSTGSN G14E (APRITFGGPSDSTESN),,,,,0.002668,,
APRITFGGPSDSTGSN G14F (APRITFGGPSDSTFSN),,,,,0.04037,,
APRITFGGPSDSTGSN G14H (APRITFGGPSDSTHSN),,,,,0.009284,,
APRITFGGPSDSTGSN G14I (APRITFGGPSDSTISN),,,,,0.0004999,,
APRITFGGPSDSTGSN G14K (APRITFGGPSDSTKSN),,,,,0.00039,,
APRITFGGPSDSTGSN G14L (APRITFGGPSDSTLSN),,,,,0.0229,,
APRITFGGPSDSTGSN G14M (APRITFGGPSDSTMSN),,,,,0.3018,,
APRITFGGPSDSTGSN G14N (APRITFGGPSDSTNSN),,,,,0.000305,,
APRITFGGPSDSTGSN G14P (APRITFGGPSDSTPSN),,,,,0.002211,,
APRITFGGPSDSTGSN G14Q (APRITFGGPSDSTQSN),,,,,0.3116,,
APRITFGGPSDSTGSN G14R (APRITFGGPSDSTRSN),,,,,0.002725,,
APRITFGGPSDSTGSN G14S (APRITFGGPSDSTSSN),,,,,0.004295,,
APRITFGGPSDSTGSN G14T (APRITFGGPSDSTTSN),,,,,0.007708,,
APRITFGGPSDSTGSN G14V (APRITFGGPSDSTVSN),,,,,0.009945,,
APRITFGGPSDSTGSN G14W (APRITFGGPSDSTWSN),,,,,0.2634,,
APRITFGGPSDSTGSN G14Y (APRITFGGPSDSTYSN),,,,,0.003136,,
APRITFGGPSDSTGSN I4A (APRATFGGPSDSTGSN),,,,,,0,
APRITFGGPSDSTGSN I4D (APRDTFGGPSDSTGSN),,,,,,0,
APRITFGGPSDSTGSN I4E (APRETFGGPSDSTGSN),,,,,,0,
APRITFGGPSDSTGSN I4F (APRFTFGGPSDSTGSN),,,,,,0,
APRITFGGPSDSTGSN I4G (APRGTFGGPSDSTGSN),,,,,,0,
APRITFGGPSDSTGSN I4H (APRHTFGGPSDSTGSN),,,,,,0,

Sequence,"DMS PSSM value, D (position 11)","DMS PSSM value, F (position 6)","DMS PSSM value, G (position 7)","DMS PSSM value, G (position 8)","DMS PSSM value, G (position 14)","DMS PSSM value, I (position 4)","DMS PSSM value, P (position 2)"
APRITFGGPSDSTGSN I4K (APRKTFGGPSDSTGSN),,,,,,0,
APRITFGGPSDSTGSN I4L (APRLTFGGPSDSTGSN),,,,,,0,
APRITFGGPSDSTGSN I4M (APRMTFGGPSDSTGSN),,,,,,0,
APRITFGGPSDSTGSN I4N (APRNTFGGPSDSTGSN),,,,,,0,
APRITFGGPSDSTGSN I4P (APRPTFGGPSDSTGSN),,,,,,0,
APRITFGGPSDSTGSN I4Q (APRQTFGGPSDSTGSN),,,,,,0,
APRITFGGPSDSTGSN I4R (APRRTFGGPSDSTGSN),,,,,,0,
APRITFGGPSDSTGSN I4S (APRSTFGGPSDSTGSN),,,,,,0,
APRITFGGPSDSTGSN I4T (APRTTFGGPSDSTGSN),,,,,,0,
APRITFGGPSDSTGSN I4V (APRVTFGGPSDSTGSN),,,,,,0.03242,
APRITFGGPSDSTGSN I4W (APRWTFGGPSDSTGSN),,,,,,0,
APRITFGGPSDSTGSN I4Y (APRYTFGGPSDSTGSN),,,,,,0,
APRITFGGPSDSTGSN P2A (AARITFGGPSDSTGSN),,,,,,,0.004798
APRITFGGPSDSTGSN P2D (ADRITFGGPSDSTGSN),,,,,,,0.06205
APRITFGGPSDSTGSN P2E (AERITFGGPSDSTGSN),,,,,,,0.7321
APRITFGGPSDSTGSN P2F (AFRITFGGPSDSTGSN),,,,,,,0.0008942
APRITFGGPSDSTGSN P2G (AGRITFGGPSDSTGSN),,,,,,,0
APRITFGGPSDSTGSN P2H (AHRITFGGPSDSTGSN),,,,,,,0
APRITFGGPSDSTGSN P2I (AIRITFGGPSDSTGSN),,,,,,,0
APRITFGGPSDSTGSN P2K (AKRITFGGPSDSTGSN),,,,,,,0
APRITFGGPSDSTGSN P2L (ALRITFGGPSDSTGSN),,,,,,,0
APRITFGGPSDSTGSN P2M (AMRITFGGPSDSTGSN),,,,,,,0
APRITFGGPSDSTGSN P2N (ANRITFGGPSDSTGSN),,,,,,,0
APRITFGGPSDSTGSN P2Q (AQRITFGGPSDSTGSN),,,,,,,0.0005858
